{
  "source": "patent US7479377B2",
  "about": "“Genetic construct intracellular monitoring system” (DiscoveRx Corporation, priority 2001, dated 2009)",
  "key": {"endogenous IL-1 receptor": {"target": "T1, endogenous IL-1 receptor (Homo sapiens, UniProt P14778)", "T1 construct": "endogenous in cells; host or cells: HeLa cells transiently transfected with pCMV-IkB-ED or pCMV-IkB M-ED as reporter", "T1 sequence (P14778 18-569)": "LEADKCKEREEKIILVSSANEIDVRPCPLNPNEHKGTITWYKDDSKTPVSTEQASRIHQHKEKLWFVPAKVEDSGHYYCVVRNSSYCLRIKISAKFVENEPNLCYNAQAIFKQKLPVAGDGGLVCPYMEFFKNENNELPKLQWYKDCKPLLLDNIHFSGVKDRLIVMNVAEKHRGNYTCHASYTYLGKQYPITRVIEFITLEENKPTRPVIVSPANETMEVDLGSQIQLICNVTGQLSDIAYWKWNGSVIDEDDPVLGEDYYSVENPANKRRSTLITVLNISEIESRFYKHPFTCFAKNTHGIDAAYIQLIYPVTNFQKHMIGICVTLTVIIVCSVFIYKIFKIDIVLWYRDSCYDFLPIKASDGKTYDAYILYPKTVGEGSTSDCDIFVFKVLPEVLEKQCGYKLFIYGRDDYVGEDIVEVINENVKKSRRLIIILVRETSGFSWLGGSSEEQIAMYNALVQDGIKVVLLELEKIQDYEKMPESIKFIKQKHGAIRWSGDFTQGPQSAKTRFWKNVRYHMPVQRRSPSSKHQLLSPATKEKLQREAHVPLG", "T1 sequence (Q9NPH3 21-570 partner)": "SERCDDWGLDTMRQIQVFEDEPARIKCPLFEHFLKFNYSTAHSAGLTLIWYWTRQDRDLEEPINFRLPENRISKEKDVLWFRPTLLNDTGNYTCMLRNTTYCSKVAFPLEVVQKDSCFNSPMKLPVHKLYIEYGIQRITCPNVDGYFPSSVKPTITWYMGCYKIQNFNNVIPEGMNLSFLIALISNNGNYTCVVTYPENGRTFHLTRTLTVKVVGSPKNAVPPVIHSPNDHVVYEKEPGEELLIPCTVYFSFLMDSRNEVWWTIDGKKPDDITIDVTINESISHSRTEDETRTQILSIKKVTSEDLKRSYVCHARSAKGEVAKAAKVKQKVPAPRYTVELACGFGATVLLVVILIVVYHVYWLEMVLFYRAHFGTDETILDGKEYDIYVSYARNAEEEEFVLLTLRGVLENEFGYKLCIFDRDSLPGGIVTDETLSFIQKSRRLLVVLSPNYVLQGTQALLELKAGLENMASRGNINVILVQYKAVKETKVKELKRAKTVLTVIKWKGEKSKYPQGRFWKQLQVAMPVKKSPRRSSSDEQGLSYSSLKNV", "test": "IL-1-induced IκB-ED degradation in HeLa cells", "type": "cell-based", "details": "IL-1 at various concentrations for 30 min", "method": "(§1) HeLa cells were seeded into 24 well plate 24 hr before transfection. 0.25 μg DNA was transfected into each well using Fugene6 (Roche) following manufacture's protocol. 24 hr after transfection, cells were subjected to treatment of TNFα (Sigma) at various concentrations for 30 min. Then the culture medium was removed, and cells were lysed in 90 μl of cell lysis buffer. […] Assay was performed in three replicates. The plate was incubated at room temperature for 30 min before addition of 15 μl chemiluminescence substrate. Plate was read 30 min after substrate addition. The untreated cells were normalized to 100% activity. […] In addition, the IκB-ED degradation was specifically linked to the upstream component activation. Also confirmed was that the IκB-ED degradation was dependent on IκB phosporylation at 32 and 36 residues, the same way as un-tagged IκB.\nIt has been reported that IL-1 activation of cells results in NF-κB pathway activation through the induced degradation of IκB. To confirm that the ED labeled IκB in cells was able to monitor IL-1 pathway activation, HeLa cells was transiently transfected with pCMV- IκB -ED or pCMV- IκB M-ED the same way as described above in 24 well plates. Cells were then treated with IL-1 (Sigma) at various concentrations for 30 min then assayed for ED activity."}, "IκB-ED": {"tested_on": "IκB-ED", "test": "TNFα-induced IκB-ED degradation in HeLa cells (ED/EA complementation, chemiluminescence)", "type": "cell-based", "details": "TNFα at various concentrations for 30 min", "method": "For transient transfection, cells were seeded into 6 well plate one day before experiment. For each well, 3 μl of Fugene 6 (Roche, Ind.) was diluted into 100_μl of serum free medium, and then 1_μg of plasmid DNA was added. The mixture was incubated at room temperature for 15 min before addition into wells dropwise. The plate was then incubated at 37° C. till the assay.\nas §1"}, "PL-PPARγ1": {"tested_on": "PL-PPARγ1", "test": "Proteosomal degradation of transiently expressed PL-PPAR (ED-EA complementation)", "type": "cell-based, human", "details": "for Amount of PL-PPARγ1: MG132 20 μM", "from_the_text": "pcDNA3.1-PL-PPAR construct was obtained in the two rounds of the cloning procedure. In the first round, the ED (55-mer) sequence was inserted into NheI and KpnI sites of the pcDNA3.1/zeo vector (Invitrogen). PPARg1 gene was obtained by PCR amplification of the human placenta cDNA library and in the second round of cloning was inserted into KpnI and NotI sites of the vector.\nProteosomal degradation of transiently expressed PL-PPAR protein was detected in NIH3T3, ECV304 and HeLa cells. Cells were transfected with pcDNA3.1-PL-PPAR and 24 hours after transfection medium was removed and cells were treated either with the vehicle (DMSO) or MG132 (proteosome inhibitor). Transfections were carried out in 6-well plates as described above. Cells were washed with PBS buffer, lysed in 480 uL of lysis buffer containing CHAPS (a mild detergent) and tested for ED-EA complementation in triplicates. Thirty microliters of the cell lysates were placed in the wells of 384-well plates. After that, 10 uL of EA solution were added and reaction of complementation was carried out for one hour at room temperature. Fifteen microliters of chemiluminescent substrate (0.4 mM Galacton-Star (Applied Biosystems, Bedford, Mass.) and 2 mg/ml Emerald II substrate (Applied Biosystems, Bedford, Mass.)) were added to the wells and the chemiluminescent signals were read using Chemiluminescent reader (Packard LumiCount, Packard Biosystems) (FIGS. 10A, 10B and 10C).\nPL-PPAR expression levels were tested in the presence of increasing concentrations of MG132 (FIG. 11). The experiment was done as described above, except that indicated concentrations of MG132 were employed."}, "[1]": {"target": "T2, human chemokine CCR3 receptor (Homo sapiens, UniProt P51677)", "T2 sequence (P51677 1-355)": "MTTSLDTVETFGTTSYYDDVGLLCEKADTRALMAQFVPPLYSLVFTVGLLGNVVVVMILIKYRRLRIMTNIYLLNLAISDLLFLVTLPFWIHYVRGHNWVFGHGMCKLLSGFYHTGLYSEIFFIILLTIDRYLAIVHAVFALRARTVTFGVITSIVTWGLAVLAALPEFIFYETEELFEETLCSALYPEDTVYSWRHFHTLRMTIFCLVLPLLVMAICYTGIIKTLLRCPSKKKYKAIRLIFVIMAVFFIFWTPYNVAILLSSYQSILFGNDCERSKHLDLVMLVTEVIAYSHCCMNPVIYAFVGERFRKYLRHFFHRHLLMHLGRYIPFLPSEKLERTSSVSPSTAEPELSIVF", "test": "CCR3 activation leads to IkB-PL degradation in CHO-K1 cells", "type": "cell-based", "details": "CHO-K1 cells expressing CCR3, transfected with PCMV-IkB-PL; 30 min; FIG. 16", "method": "CHO-K1 cells stably expressing human chemokine CCR3 receptor was obtained from Euroscreen. […] Cells were seeded in 6-well plates one day before transfection. PCMV-IkB-PL was transiently transfected into CHO MC4 cells using Fugene6 following manufacturer's protocol. […] (FIG. 16)."}, "[2]": {"tested_on": "Hela cells stably expressing IkB-PL", "test": "Cell Titer-Glo cell viability assay of Hela-IkB cells with EGF", "type": "cell-based", "details": "0.5% FBS, serial dosage of rhEGF, 72 hours, FIG. 17", "method": "Hela cells stably expressing IkB-PL were used. To confirm the cells response to EGF, the cell viability assay was performed. Hela-IkB cells were seeded in DMEM with 0.5% FBS in 96 well plate with a density of 5000 cells per well, exposing to a serial dosage of rhEGF. 72 hours later, cell viability assay was performed using the Cell Titer-Glo luminescence Cell Viability assay kit (Promega). […] (FIG. 17)."}, "[3]": {"details": "HeLa cells transfected with pCMV-IκB M-ED"}, "[4]": {"details": "HeLa cells transfected with pCMV-IκB-ED"}},
  "note": "Peptide text beside a SMILES is read from it. * marks the point of attachment. Cbz = O=C(OCc1ccccc1)*",
  "data": [
    {"compound": "IL-1", "values": [
      {"measurement": "Degradation of mutant IκB M-ED", "setting": "endogenous IL-1 receptor; [3]", "value": "resistant to IL-1 induced degradation"},
      {"measurement": "IκB-ED activity", "setting": "endogenous IL-1 receptor; [4]", "value": "decreased upon IL-1 treatment in a dose dependent manner"}
    ]},
    {"compound": "TNFα", "values": [
      {"measurement": "ED activity of mutant IκB M-ED", "setting": "IκB-ED; [3]", "value": "did not show a dose dependent decrease of ED activity"},
      {"measurement": "ED activity of IκB-ED (degradation of wild type IκB)", "setting": "IκB-ED; [4]", "value": "decrease the ED activity in a dose dependent manner"}
    ]},
    {"compound": "CC(C)C[C@@H](C=O)NC(=O)[C@H](CC(C)C)NC(=O)[C@H](CC(C)C)NC(=O)OCc1ccccc1", "note": "[MG132] (Cbz-Leu-Leu-Leu-aldehyde)", "values": [
      {"measurement": "Amount of PL-PPARγ1", "setting": "PL-PPARγ1; ECV304 cells, FIG. 10B", "value": "enhancement of the amount of PL-PPARγ1"},
      {"measurement": "Amount of PL-PPARγ1", "setting": "PL-PPARγ1; HeLa cells, FIG. 10C", "value": "enhancement of the amount of PL-PPARγ1"},
      {"measurement": "Amount of PL-PPARγ1", "setting": "PL-PPARγ1; NIH3T3 cells, FIG. 10A", "value": "enhancement of the amount of PL-PPARγ1"},
      {"measurement": "PL-PPAR expression level with increasing concentrations of MG132", "setting": "PL-PPARγ1; increasing concentrations of MG132, FIG. 11", "value": "Dose-Dependent Increase"}
    ]},
    {"compound": "eotaxin", "values": [
      {"measurement": "IkB-PL degradation upon CCR3 activation", "setting": "[1]", "value": "activation of the chemokine receptor CCR3 leading to IkB-PL degradation"}
    ]},
    {"compound": "EGF (NSDSECPLSHDGYCLHDGVCMYIEALDKYACNCVVGYIGERCQYRDLKWWELR)", "values": [
      {"measurement": "Viable cell numbers", "setting": "[2]", "value": "responded to the EGF induction in a dosage dependent manner"}
    ]}
  ]
}
